Experimental data published in PMC5641481 (Science (New York, N.Y.), 2017).

Key:
[1] = system: other proteins of the endocannabinoid system, endocannabinoid-binding TRP ion channels; assay: interaction with other endocannabinoid system proteins and TRP channels
FAAH [2] = target: T1, FAAH (Homo sapiens, UniProt O00519); assay: ABPP of human frontal cortex proteome; type: biochemical; conditions: human frontal cortex proteome (post-mortem)
T1 sequence (O00519 1-579): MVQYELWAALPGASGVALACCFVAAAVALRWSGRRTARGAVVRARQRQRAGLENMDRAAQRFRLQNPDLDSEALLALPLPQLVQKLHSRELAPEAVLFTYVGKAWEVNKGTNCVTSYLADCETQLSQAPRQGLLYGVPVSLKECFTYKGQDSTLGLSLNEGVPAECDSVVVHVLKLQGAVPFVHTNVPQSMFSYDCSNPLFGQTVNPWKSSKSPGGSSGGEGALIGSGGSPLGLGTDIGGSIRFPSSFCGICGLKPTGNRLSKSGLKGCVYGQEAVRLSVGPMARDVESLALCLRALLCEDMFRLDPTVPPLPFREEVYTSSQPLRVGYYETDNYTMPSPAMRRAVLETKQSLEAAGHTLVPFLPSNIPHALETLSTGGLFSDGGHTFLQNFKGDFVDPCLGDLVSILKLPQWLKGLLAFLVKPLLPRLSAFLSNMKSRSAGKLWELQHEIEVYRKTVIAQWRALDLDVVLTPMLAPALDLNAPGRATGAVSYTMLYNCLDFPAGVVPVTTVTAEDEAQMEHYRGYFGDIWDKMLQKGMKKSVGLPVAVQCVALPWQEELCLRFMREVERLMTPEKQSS

FAAH [3] = target: T1, FAAH; assay: competitive gel-based ABPP, HEK293T cell lysates; type: biochemical; conditions: in vitro, HEK293T recombinantly expressing human enzyme
rat FAAH = target: T2, rat FAAH (Rattus norvegicus, UniProt P97612); assay: substrate hydrolysis assay; type: biochemical; conditions: in vitro
T2 sequence (P97612 1-579): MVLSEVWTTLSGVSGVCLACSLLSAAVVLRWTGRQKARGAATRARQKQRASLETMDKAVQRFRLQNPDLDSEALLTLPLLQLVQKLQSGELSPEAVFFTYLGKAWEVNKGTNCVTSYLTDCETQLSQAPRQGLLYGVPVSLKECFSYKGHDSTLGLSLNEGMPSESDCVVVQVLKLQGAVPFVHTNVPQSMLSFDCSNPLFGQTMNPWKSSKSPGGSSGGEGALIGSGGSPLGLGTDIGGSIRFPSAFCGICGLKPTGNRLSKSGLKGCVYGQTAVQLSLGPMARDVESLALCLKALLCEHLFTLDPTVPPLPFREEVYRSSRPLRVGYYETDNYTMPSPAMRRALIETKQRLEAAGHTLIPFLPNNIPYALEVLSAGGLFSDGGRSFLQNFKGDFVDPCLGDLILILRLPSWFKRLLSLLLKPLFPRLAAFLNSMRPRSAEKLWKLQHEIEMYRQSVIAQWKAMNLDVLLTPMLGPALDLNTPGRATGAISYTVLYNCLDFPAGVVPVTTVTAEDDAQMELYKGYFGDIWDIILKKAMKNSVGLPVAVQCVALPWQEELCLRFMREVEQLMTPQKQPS

PNPLA6 = PNPLA6 (Homo sapiens, UniProt Q8IY17); conditions: PNPLA6, in situ (24 h), gel-based ABPP, HEK293T
FAAH [4] = target: T1, FAAH; assay: anandamide substrate hydrolysis assay, intact transfected HEK293T cells; type: cell-based; conditions: human FAAH in transfected HEK293T cells, in situ
ABHD6 [5] = target: T3, ABHD6 (Homo sapiens, UniProt Q9BV23); assay: ABPP of human frontal cortex proteome; type: biochemical; conditions: human frontal cortex proteome (post-mortem)
T3 sequence (Q9BV23 1-337): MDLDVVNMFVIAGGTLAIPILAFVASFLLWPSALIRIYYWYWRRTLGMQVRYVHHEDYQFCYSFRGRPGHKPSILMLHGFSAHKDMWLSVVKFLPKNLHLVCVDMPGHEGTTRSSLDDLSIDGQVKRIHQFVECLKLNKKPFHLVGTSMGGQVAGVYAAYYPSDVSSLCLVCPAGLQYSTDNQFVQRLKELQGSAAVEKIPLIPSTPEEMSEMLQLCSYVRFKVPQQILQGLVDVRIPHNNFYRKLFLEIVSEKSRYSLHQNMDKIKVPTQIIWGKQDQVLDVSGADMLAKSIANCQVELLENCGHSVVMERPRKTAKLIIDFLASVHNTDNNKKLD

ABHD6 [6] = target: T3, ABHD6; assay: MS-based ABPP in SW620 cells; type: cell-based
FAAH [7] = target: T1, FAAH; assay: MS-based ABPP in SW620 cells; type: cell-based; conditions: all tested concentrations (0.2, 10, and 50 μM)
FAAH2 = target: T4, FAAH2 (Homo sapiens, UniProt Q6GMR7); assay: competitive gel-based ABPP, intact HEK293T cells; type: cell-based; conditions: FAAH2, in situ (4 h)
T4 sequence (Q6GMR7 1-532): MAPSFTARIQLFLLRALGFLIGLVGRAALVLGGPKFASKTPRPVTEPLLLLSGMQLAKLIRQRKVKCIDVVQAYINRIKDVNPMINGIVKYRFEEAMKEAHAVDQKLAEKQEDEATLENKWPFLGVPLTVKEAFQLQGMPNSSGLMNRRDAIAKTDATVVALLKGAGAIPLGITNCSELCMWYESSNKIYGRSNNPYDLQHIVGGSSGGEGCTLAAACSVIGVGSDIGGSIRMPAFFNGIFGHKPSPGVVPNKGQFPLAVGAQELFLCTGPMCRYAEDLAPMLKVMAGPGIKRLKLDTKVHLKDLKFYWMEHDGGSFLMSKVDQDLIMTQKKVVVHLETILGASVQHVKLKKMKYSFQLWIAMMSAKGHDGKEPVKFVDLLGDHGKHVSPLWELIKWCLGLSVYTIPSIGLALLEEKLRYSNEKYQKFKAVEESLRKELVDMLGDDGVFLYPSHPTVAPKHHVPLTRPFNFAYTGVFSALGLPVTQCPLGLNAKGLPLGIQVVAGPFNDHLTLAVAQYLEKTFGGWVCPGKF

FAAH [8] = target: T1, FAAH; assay: competitive gel-based ABPP, intact HEK293T cells; type: cell-based; conditions: in situ (4 h)
ABHD11 = target: T5, ABHD11 (Homo sapiens, UniProt Q8NFV4); assay: competitive gel-based ABPP, intact HEK293T cells; type: cell-based; conditions: ABHD11, in situ (4 h)
T5 sequence (Q8NFV4 1-306): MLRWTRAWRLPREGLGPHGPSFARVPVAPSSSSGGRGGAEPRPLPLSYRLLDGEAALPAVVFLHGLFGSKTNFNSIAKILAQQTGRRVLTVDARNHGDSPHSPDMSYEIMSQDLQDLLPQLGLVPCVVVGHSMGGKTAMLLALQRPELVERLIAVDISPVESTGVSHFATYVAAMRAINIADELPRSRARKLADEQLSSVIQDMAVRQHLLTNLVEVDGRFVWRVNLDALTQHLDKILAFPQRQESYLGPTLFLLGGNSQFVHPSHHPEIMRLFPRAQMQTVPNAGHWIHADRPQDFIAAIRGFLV

ABHD6 [9] = target: T3, ABHD6; assay: competitive gel-based ABPP, intact HEK293T cells; type: cell-based; conditions: ABHD6, in situ (4 h)
FAAH [10] = target: T1, FAAH; assay: anandamide substrate hydrolysis assay, HEK293T cell lysates; type: biochemical; conditions: in vitro
CES2 = target: T6, CES2 (Homo sapiens, UniProt O00748); assay: competitive gel-based ABPP, intact HEK293T cells; type: cell-based; conditions: CES2, in situ (4 h)
T6 sequence (O00748 27-559): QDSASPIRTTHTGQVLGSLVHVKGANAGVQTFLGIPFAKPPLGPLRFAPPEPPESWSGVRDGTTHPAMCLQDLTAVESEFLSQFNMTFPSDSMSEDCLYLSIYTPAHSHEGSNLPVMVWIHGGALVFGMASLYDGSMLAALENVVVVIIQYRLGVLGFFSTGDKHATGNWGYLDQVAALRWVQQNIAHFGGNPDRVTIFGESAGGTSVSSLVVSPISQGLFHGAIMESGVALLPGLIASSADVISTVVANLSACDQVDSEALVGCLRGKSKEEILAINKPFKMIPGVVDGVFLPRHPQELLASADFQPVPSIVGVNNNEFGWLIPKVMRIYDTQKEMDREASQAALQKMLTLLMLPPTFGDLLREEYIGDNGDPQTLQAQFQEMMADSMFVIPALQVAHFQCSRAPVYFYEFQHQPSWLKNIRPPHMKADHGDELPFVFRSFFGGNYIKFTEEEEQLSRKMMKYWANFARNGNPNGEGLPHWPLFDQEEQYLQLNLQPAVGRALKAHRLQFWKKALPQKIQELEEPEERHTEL

PNPLA6, sequence (Q8IY17 whole entry): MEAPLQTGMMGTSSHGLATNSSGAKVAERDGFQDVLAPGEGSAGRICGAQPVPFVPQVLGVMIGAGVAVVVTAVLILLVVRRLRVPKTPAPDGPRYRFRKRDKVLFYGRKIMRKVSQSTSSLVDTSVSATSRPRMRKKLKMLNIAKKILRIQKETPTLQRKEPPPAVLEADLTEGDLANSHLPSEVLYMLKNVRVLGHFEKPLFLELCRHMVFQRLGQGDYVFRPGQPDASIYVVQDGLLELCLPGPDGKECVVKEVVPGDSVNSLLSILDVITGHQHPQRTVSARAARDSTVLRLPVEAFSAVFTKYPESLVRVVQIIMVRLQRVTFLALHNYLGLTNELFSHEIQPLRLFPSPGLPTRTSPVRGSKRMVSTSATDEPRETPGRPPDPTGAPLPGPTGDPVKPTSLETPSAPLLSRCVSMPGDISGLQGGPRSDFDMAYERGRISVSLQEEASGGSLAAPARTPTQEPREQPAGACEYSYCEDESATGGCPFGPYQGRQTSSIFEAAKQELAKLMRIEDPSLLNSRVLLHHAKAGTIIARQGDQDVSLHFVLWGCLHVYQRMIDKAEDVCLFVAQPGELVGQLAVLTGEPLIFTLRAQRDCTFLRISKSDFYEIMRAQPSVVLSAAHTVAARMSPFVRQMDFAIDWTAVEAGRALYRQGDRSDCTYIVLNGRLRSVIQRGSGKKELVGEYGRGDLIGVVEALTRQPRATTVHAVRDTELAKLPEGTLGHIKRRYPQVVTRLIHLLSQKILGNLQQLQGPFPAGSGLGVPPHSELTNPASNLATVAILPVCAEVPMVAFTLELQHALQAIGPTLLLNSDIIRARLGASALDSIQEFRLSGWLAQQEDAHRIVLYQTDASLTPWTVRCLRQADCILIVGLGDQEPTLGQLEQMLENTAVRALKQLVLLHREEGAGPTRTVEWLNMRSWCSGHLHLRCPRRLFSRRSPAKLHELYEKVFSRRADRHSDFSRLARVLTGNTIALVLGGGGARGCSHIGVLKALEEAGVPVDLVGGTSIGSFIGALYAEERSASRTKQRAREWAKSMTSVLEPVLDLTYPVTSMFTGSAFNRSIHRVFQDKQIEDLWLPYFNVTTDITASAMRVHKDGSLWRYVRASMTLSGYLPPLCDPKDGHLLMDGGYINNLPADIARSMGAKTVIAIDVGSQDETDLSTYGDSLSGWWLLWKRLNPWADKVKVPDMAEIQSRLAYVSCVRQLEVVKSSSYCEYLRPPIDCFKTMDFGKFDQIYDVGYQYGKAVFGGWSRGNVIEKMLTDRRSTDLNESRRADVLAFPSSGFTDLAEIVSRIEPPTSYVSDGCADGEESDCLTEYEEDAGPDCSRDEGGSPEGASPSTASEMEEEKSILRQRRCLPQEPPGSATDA

Row | Compound | interaction with other proteins of the endocannabinoid system or endocannabinoid-binding TRP ion channels [1] | cross-reactivity with FAAH (FAAH [2]) | IC50 (FAAH [3]) [µM] | IC50 (rat FAAH) [nM] | IC50 (PNPLA6) [µM] | IC50 (FAAH [4]) [nM] | cross-reactivity with ABHD6 (ABHD6 [5]) | inhibition of ABHD6 (ABHD6 [6]; 10 μM, 4 h) [%] | inhibition of ABHD6 (ABHD6 [6]; 50 μM, 24 h) [%] | engagement of human FAAH (FAAH [7]) | IC50 (FAAH2) [nM] | IC50 (FAAH [8]) [nM] | IC50 (ABHD11) [µM] | IC50 (ABHD6 [9]) [nM] | IC50 (FAAH [10]; human FAAH) [nM] | IC50 (CES2) [nM] | IC50 (FAAH [10]; FAAH) [nM]
1 | CN(C(=O)n1cnc(-c2ccc[n+]([O-])c2)c1)C1CCCCC1 [BIA 10-2474] | did not interact | cross-reactivity | 7.5 | ≥ 1000 | 11 | 50 to 70 | cross-reactivity | > 90 | > 90 | fully engaged | 400 | 49 | > 10 | 81 | ≥ 1000 |  | 
2 | CN(C(=O)n1cnc(-c2cccnc2)c1)C1CCCCC1 [BIA 10-2639] |  |  | 4.1 |  |  |  |  |  |  |  | 100 | 49 |  | 79 |  | 630 | 
3 | O=C(Nc1cccnn1)N1CCC(=Cc2cccc(Oc3ccc(C(F)(F)F)cn3)c2)CC1 [PF04457845] | did not interact |  | 0.004 |  | > 50 |  |  |  |  | fully engaged | 590 | 11 | > 10 | > 10000 |  | > 10000 | 1 to 10
